This is an account of results in the supplement of paper PMC10307832.

Assay in all cases: relative viability (nuclei count vs DMSO), 5 days (fraction); higher = more cells survive
Compound in experiment [1]: CN(C)CC1=CC(=CC=C1)N=C(C2=CC=CC=C2)C3=C(NC4=C3C=CC(=C4)C(=O)N(C)C)O + CS(=O)(=O)CCNCc1ccc(-c2ccc3ncnc(Nc4ccc(OCc5cccc(F)c5)c(Cl)c4)c3c2)o1 [Lapatinib] (partner 2 µM)
In a few lines:
(§1)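 For relative viability, nuclei counts in treated wells were divided by those in vehicle wells. Lung cancer cell lines had been pin-tool dosed in 1536-well plates the day after seeding and cultured for 5 days, then fixed and stained in one step (final 0.05% Triton X-100, 1% formaldehyde, 1 ug/ml Hoechst) and imaged at 4×. Doses were one drug alone or a fixed anchor-drug dose plus five library-drug doses (not always all listed) in √10 steps, and values are duplicate-plate medians.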

Compound in experiment [2]: CN(C)CC1=CC(=CC=C1)N=C(C2=CC=CC=C2)C3=C(NC4=C3C=CC(=C4)C(=O)N(C)C)O + Nc1ncn([C@H]2C[C@H](O)[C@@H](CO)O2)c(=O)n1 [Decitabine] (partner 2 µM)
Summed up:
as §1

Compound in experiment [3]: CN(C)CC1=CC(=CC=C1)N=C(C2=CC=CC=C2)C3=C(NC4=C3C=CC(=C4)C(=O)N(C)C)O + O=C(c1cc(Cc2n[nH]c(=O)c3ccccc23)ccc1F)N1CCN(C(=O)C2CC2)CC1 [Olaparib] (partner 8 µM)
Summed up:
as §1

Compound in experiment [4]: CN(C)CC1=CC(=CC=C1)N=C(C2=CC=CC=C2)C3=C(NC4=C3C=CC(=C4)C(=O)N(C)C)O + CCNC(=O)c1noc(-c2cc(C(C)C)c(O)cc2O)c1-c1ccc(CN2CCOCC2)cc1 [Luminespib] (partner 0.01 µM)
In a few lines: as §1

For the cell line A549, the relative viability amounted to 0.962 in experiment [1] (first compound 0.08 µM); 1.01 in experiment [1] (first compound 0.253 µM); 1.02 in experiment [1] (first compound 0.8 µM); 0.945 in experiment [1] (first compound 2.53 µM); 0.934 in experiment [1] (first compound 8 µM); 0.286 in experiment [2] (first compound 0.253 µM). Also, the relative viability came to 0.27 in experiment [2] (first compound 0.8 µM); 0.223 in experiment [2] (first compound 2.53 µM); 0.246 in experiment [2] (first compound 8 µM); 0.294 in experiment [3] (first compound 0.08 µM); 0.372 in experiment [3] (first compound 0.253 µM); 0.401 in experiment [3] (first compound 0.8 µM). In addition, the relative viability in experiment [3] (first compound 2.53 µM) is 0.148; in experiment [3] (first compound 8 µM), 0.406.

For LCLC-103H, the relative viability in experiment [4] (first compound 0.08 µM) came out at 0.948; in experiment [4] (first compound 0.253 µM) it was 0.959; in experiment [4] (first compound 0.8 µM), 1.07; in experiment [4] (first compound 2.53 µM), 0.926; in experiment [4] (first compound 8 µM), 0.863; in experiment [2] (first compound 0.08 µM), 0.785. Also, the relative viability in experiment [2] (first compound 0.253 µM) came out at 0.725; in experiment [2] (first compound 0.8 µM), 0.723; in experiment [2] (first compound 2.53 µM), 0.739; in experiment [2] (first compound 8 µM) it was 0.641; in experiment [3] (first compound 0.08 µM) it was 0.751; in experiment [3] (first compound 0.253 µM) it was 0.782. Moreover, the relative viability in experiment [3] (first compound 0.8 µM) worked out at 0.773; in experiment [3] (first compound 2.53 µM) it was 0.775; in experiment [3] (first compound 8 µM), 0.749.

Turning to EMC-BAC-2, the relative viability is 1.2 in experiment [4] (first compound 0.08 µM); 1.28 in experiment [4] (first compound 0.253 µM); 1.15 in experiment [4] (first compound 0.8 µM); 1.16 in experiment [4] (first compound 2.53 µM); 1.11 in experiment [4] (first compound 8 µM); 0.927 in experiment [1] (first compound 0.08 µM). In addition, the relative viability in experiment [1] (first compound 0.253 µM) was 0.914; in experiment [1] (first compound 0.8 µM) it was 0.953; in experiment [1] (first compound 2.53 µM), 0.898; in experiment [1] (first compound 8 µM), 0.878; in experiment [2] (first compound 0.08 µM), 1.15; in experiment [2] (first compound 0.253 µM), 0.996. Also, the relative viability was determined as 0.992 in experiment [2] (first compound 0.8 µM); 0.817 in experiment [2] (first compound 2.53 µM); 1.01 in experiment [2] (first compound 8 µM); 0.507 in experiment [3] (first compound 0.08 µM); 0.526 in experiment [3] (first compound 0.253 µM); 0.543 in experiment [3] (first compound 0.8 µM). For the same cell line, the results for the relative viability in experiment [3] (first compound 2.53 µM) and in experiment [3] (first compound 8 µM) were 0.449 and 0.507, respectively.

For the cell line EBC-1, the relative viability in experiment [1] (first compound 0.08 µM) came out at 0.223; in experiment [1] (first compound 0.253 µM) it was 0.248; in experiment [1] (first compound 0.8 µM), 0.227; in experiment [1] (first compound 2.53 µM) it was 0.198; in experiment [1] (first compound 8 µM) it was 0.225; in experiment [3] (first compound 0.08 µM) it was 0.785. The relative viability in experiment [3] (first compound 0.253 µM) is 0.732; in experiment [3] (first compound 0.8 µM) it was 0.772; in experiment [3] (first compound 2.53 µM), 0.744; in experiment [3] (first compound 8 µM), 0.845.

As to NCI-H1915, the relative viability in experiment [4] (first compound 0.08 µM) turned out to be 0.745; in experiment [4] (first compound 0.253 µM) it was 0.745; in experiment [4] (first compound 0.8 µM) it was 0.811; in experiment [4] (first compound 2.53 µM) it was 0.836; in experiment [4] (first compound 8 µM), 0.667; in experiment [1] (first compound 0.08 µM), 0.957. Further, the relative viability is 0.955 in experiment [1] (first compound 0.253 µM); 1.05 in experiment [1] (first compound 0.8 µM); 0.971 in experiment [1] (first compound 2.53 µM); 0.956 in experiment [1] (first compound 8 µM); 0.251 in experiment [2] (first compound 0.08 µM); 0.274 in experiment [2] (first compound 0.253 µM). The relative viability in experiment [2] (first compound 0.8 µM) is 0.271; in experiment [2] (first compound 2.53 µM), 0.255; in experiment [2] (first compound 8 µM) it was 0.247; in experiment [3] (first compound 0.08 µM), 0.257; in experiment [3] (first compound 0.253 µM), 0.271; in experiment [3] (first compound 0.8 µM), 0.249. The relative viability in experiment [3] (first compound 2.53 µM) came to 0.249; in experiment [3] (first compound 8 µM), 0.251.
